The source of these data is ChEMBL document CHEMBL1201862, “PubChem BioAssay data set” (2004).

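The compound was tested at five concentrations on cells cultured in 96-well plates, with a 48-hour exposure period. The concentration for 50% growth inhibition is given as GI50.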 Active and inactive are the calls of the source. Rule as the data show it: active = GI50 up to about 1.1 µM and inactive = higher.

Test systems include RXF 393; HOP-92; K562; A498; SF-268; OVCAR-8; COLO 205; HL-60; IGROV-1; HCT-116; NCI-H23; SK-MEL-2; HCT-15; SR; CCRF-CEM.
What all share (assay): NCI anticancer screen, dose series, 48 h

`Cc1cc(C)nc(NS(=O)(=O)c2ccc(NC(=O)c3ccc(Cl)c4c(Nc5ccc(S(=O)(=O)N=C(N)N)cc5)c5ccccc5nc34)cc2)n1`: the GI50 with RXF 393 was > 10 µM (inactive); in the assay on HOP-92, 25.5 µM (inactive); with K562, 19 µM (inactive); with A498 it was > 100 µM (inactive); with SF-268, 35.1 µM (inactive); in the assay with OVCAR-8, 8.65 µM (inactive). The GI50 in the assay on COLO 205 was 61.5 µM (inactive); with HL-60, 3.72 µM (inactive); with IGROV-1, 63.8 µM (inactive); with HCT-116, 24 µM (inactive); in the assay on NCI-H23, 3.91 µM (inactive).
Take `N=C(N)NS(=O)(=O)c1ccc(NCCc2c3ccccc3nc3ccccc23)cc1`: the GI50 in the assay with RXF 393 was > 100 µM (inactive); with SK-MEL-2 it was > 100 µM (inactive); in the assay with HCT-15 it was over 100 µM; in the assay on HOP-92 it was > 100 µM (inactive); in the assay on SR, 33.9 µM (inactive); in the assay with K562, 51.1 µM (inactive). Moreover, the GI50 is > 100 µM (inactive) in the assay on SF-268; > 100 µM (inactive) in the assay with OVCAR-8; 76 µM (inactive) in the assay on COLO 205; 19.4 µM (inactive) in the assay with HL-60; > 100 µM (inactive) with IGROV-1; 94 µM (inactive) in the assay with CCRF-CEM. In addition, the values for the GI50 in the assay with HCT-116 and in the assay on NCI-H23 were 41.9 µM (inactive) and > 10 µM (inactive), respectively.
On to `CCCCN(CCCC)c1c([N+](=O)[O-])c(=O)nc2ccccn12`, for which the GI50 with SK-MEL-2 is 31 µM (inactive); in the assay on HCT-15 it was 39.4 µM; in the assay with HOP-92 it was 61.5 µM (inactive); in the assay with SR, 38.5 µM (inactive); in the assay with K562 it was 37.2 µM (inactive); in the assay on A498, 22.3 µM (inactive). Besides, the GI50 in the assay with SF-268 was 29.3 µM (inactive); with OVCAR-8, 27.5 µM (inactive); in the assay on COLO 205, 45.5 µM (inactive); in the assay on IGROV-1, > 100 µM (inactive); in the assay on CCRF-CEM it was 44.6 µM (inactive); with HCT-116 it was 38.9 µM (inactive). The GI50 with NCI-H23 is 30.8 µM (inactive).
`CCC12CCCN(Cc3ccccc3)C1c1c(n(C)c3ccccc13)C(CO)C2` (stereo not given): the GI50 was 72.1 µM (inactive) in the assay with RXF 393; 55.7 µM (inactive) in the assay on SK-MEL-2; 38.3 µM in the assay on HCT-15; 33.4 µM (inactive) in the assay with HOP-92; 25.5 µM (inactive) in the assay on SR; 29.4 µM (inactive) in the assay on K562. Further, the GI50 in the assay on SF-268 is 114 µM (inactive); in the assay with OVCAR-8, 63.4 µM (inactive); in the assay on COLO 205, 38 µM (inactive); with HL-60, 43.4 µM (inactive); in the assay on IGROV-1, 38.5 µM (inactive); in the assay on CCRF-CEM, 83 µM (inactive). Also, the GI50 was 14 µM (inactive) in the assay on HCT-116 and 52.2 µM (inactive) with NCI-H23.
As for `N#Cc1c2nc3ccccc3nc2n2ccc3ccccc3c12`, the GI50 in the assay on SK-MEL-2 was > 100 µM (inactive); with HCT-15 it was over 100 µM; in the assay on HOP-92, > 100 µM (inactive); in the assay with K562 it was > 100 µM (inactive); in the assay with SF-268, > 100 µM (inactive); in the assay on OVCAR-8, > 100 µM (inactive). Further, the GI50 in the assay on COLO 205 was > 100 µM (inactive); in the assay on HL-60 it was > 100 µM (inactive); in the assay with IGROV-1, > 100 µM (inactive); with CCRF-CEM, > 100 µM (inactive); in the assay on HCT-116, 54 µM (inactive); in the assay with NCI-H23 it was 68.4 µM (inactive).
`CC(=O)NC1=C(NCc2ccc(Cl)cc2)C(=O)c2ccccc2C1=O`: the GI50 was 4.24 µM (inactive) in the assay with RXF 393; 5.62 µM (inactive) in the assay on SK-MEL-2; 5.57 µM with HCT-15; 8 µM (inactive) with SR; 2.46 µM (inactive) with K562; 16.5 µM (inactive) in the assay with SF-268. The GI50 in the assay on OVCAR-8 is 7.45 µM (inactive); in the assay on COLO 205, 5.4 µM (inactive); with HL-60, 1.39 µM (inactive); in the assay on IGROV-1, 11.3 µM (inactive); with CCRF-CEM it was 8.53 µM (inactive); with HCT-116 it was 3.12 µM (inactive). In addition, in the assay with NCI-H23, the GI50 was 6.76 µM (inactive).
With `CCOC(=O)NC(=O)c1c[nH]c(=O)[nH]c1=O`, the GI50 in the assay with SK-MEL-2 was > 100 µM (inactive); with HCT-15, over 100 µM; with HOP-92, > 100 µM (inactive); in the assay on SR, > 100 µM (inactive); in the assay on K562, > 100 µM (inactive); in the assay with A498, > 100 µM (inactive). Besides, the GI50 in the assay on OVCAR-8, with COLO 205, in the assay with HL-60, in the assay on IGROV-1, with CCRF-CEM and in the assay with HCT-116 was > 100 µM (inactive) in each case. The GI50 in the assay on NCI-H23 was > 100 µM (inactive).
For `O=C(CC1(O)C(=O)Nc2c(Cl)cc(Cl)cc21)c1ccc2ccccc2c1` (stereo not given), the GI50 in the assay with RXF 393 is 8.17 µM (inactive); in the assay on SK-MEL-2 it was 2.48 µM (inactive); with HCT-15 it was 3.62 µM; with HOP-92, 21.4 µM (inactive); with K562, 3.18 µM (inactive); with A498, 11.3 µM (inactive). The GI50 was 12.2 µM (inactive) in the assay on SF-268; 10.6 µM (inactive) in the assay with OVCAR-8; 8.79 µM (inactive) in the assay with COLO 205; 3.18 µM (inactive) in the assay on HL-60; 10.9 µM (inactive) with IGROV-1; 10.2 µM (inactive) in the assay with CCRF-CEM. Also, in the assay on NCI-H23, the GI50 is 7.33 µM (inactive).
Turning to `O=[N+]([O-])c1ccc(NC2OCC(O)C(O)C2O)cc1` (stereo not given), the GI50 with RXF 393 is 43 µM (inactive); in the assay on SK-MEL-2, > 100 µM (inactive); in the assay on HCT-15, over 100 µM; with HOP-92 it was > 100 µM (inactive); with SR it was > 100 µM (inactive); in the assay on K562, > 100 µM (inactive). Further, the GI50 in the assay on A498, in the assay on SF-268, in the assay with OVCAR-8, with COLO 205, in the assay with IGROV-1 and with CCRF-CEM was > 100 µM (inactive) in each case. The GI50 with NCI-H23 is > 100 µM (inactive).
For `CCOC(=O)CC(=O)ON(C)C(C)=O`, the GI50 with SK-MEL-2 was > 100 µM (inactive); with HCT-15 it was over 100 µM; with SR, > 100 µM (inactive); in the assay on K562 it was > 100 µM (inactive); with A498 it was > 100 µM (inactive); with SF-268, > 100 µM (inactive). The GI50 with OVCAR-8, in the assay on COLO 205, with HL-60, in the assay with IGROV-1, with CCRF-CEM and with HCT-116 was > 100 µM (inactive) in each case. For the same molecule, the GI50 in the assay with NCI-H23 is > 100 µM (inactive).
Take `c1ccc(C(c2ccccc2)c2cccnc2)cc1`: the GI50 is > 100 µM (inactive) with SK-MEL-2; over 100 µM in the assay with HCT-15; 38.3 µM (inactive) with K562; > 100 µM (inactive) with A498; > 100 µM (inactive) in the assay with SF-268; 99.3 µM (inactive) in the assay with OVCAR-8. For the same molecule, the GI50 in the assay with COLO 205 was > 100 µM (inactive); with IGROV-1 it was > 100 µM (inactive); in the assay with CCRF-CEM it was > 100 µM (inactive); in the assay on HCT-116, > 100 µM (inactive); in the assay on NCI-H23, 65.8 µM (inactive).
